Where “and” joins values, the source holds several entries; their conditions need not be identical. Identical values can stand only once. Like-named read-outs stand apart in the source and are kept apart here.
Legend:
wild-type BF = wild-type BF (Geobacillus stearothermophilus, UniProt P52026); assay type: biochemical, Bacillus stearothermophilus; details: for Kinetics of 3′-amino primer extension vs. absence of added divalent metals: 5 mM metal ion, 55° C., pH 8.8; for kpol of 3′-amino primer extension by wild-type BF: varying metal chloride concentration; for Kd: in the presence of 1 mM dCTP, read-out: Kd,app (apparent dissociation constant of metal ion)
Protocol: Primer extension assays. Except where indicated, all extension reactions were performed with 1 μM fluorescein-labeled primer, 1.5 μM template, and ˜1.1 μM purified His6-tagged protein at 55° C. in a reaction buffer composed of 40 mM Tris-HCl, pH 8.8, 1 mM DTT, and a divalent cation as specified, typically 10 mM CaCl2. Reaction mixtures were equilibrated at the indicated reaction temperature for 1 min and initiated by addition of substrate. Progress was monitored by sampling 1 μL from the reaction manually quenched into 24 μL of chilled 90% formamide, 10 mM EDTA. Quenched samples were denatured at 90° C. for 1 min and cooled to room temperature prior to separation by denaturing polyacrylamide gel electrophoresis on 20% TBE-urea gels. To maintain strand separation for long extension products, as in FIGS. 3F-3H, an unlabeled DNA oligonucleotide complementary to the template was added to the quenching buffer (˜2 μM) prior to denaturation. Typically, 3 or 4 μL of quenched sample was loaded per lane for gels of 0.75-mm thickness. Bands were visualized with a Typhoon laser scanning imager (GE Amersham) and quantified with the manufacturer's software. For acid digestion of extended products, a reaction sample was diluted with 2.5 volumes of 1% acetic acid, 10 mM EDTA in formamide and digested at 75° C. for 45 min prior to gel separation.

BF F710Y/D598A [1] = molecular target: T1, BF F710Y/D598A (Geobacillus stearothermophilus, UniProt P52026, A338V/A406G/A407V/A456E/A482S/A505K/A513T/A699P/A741E/D309E/D325E/D540E/D696E/D751E/E459R/E695D/F710Y/G324E/G408D/G483S/G600K/G678D/H329D/H417K/H567Y/H573N/H596R/H691Q/I672M/I841M/K356Q/L337V/L358V/L461F/M462L/M605I/N487E/P645S/P870S/Q512G/Q748R/R341H/R388C/R516Q/R816K/R823H/S306R/S424P/S812N/T369S/T436A/T442V/T475V/T491A/T508A/T536V/T728S/T790M/V391S/V413A/V537I/V598A/V619T/V813A); assay type: biochemical; design: burst activity kpol: unit not given here; details: for pre-steady-state rate constant for nCTP addition: 3′-amino terminal primer; for Acceleration of kinetics over Ca2+: nCTP addition
BF F710Y [2] = molecular target: T2, BF F710Y (Geobacillus stearothermophilus, UniProt P52026, F710Y); experiment: Solvent deuterium kinetic isotope effect (SDKIE) of 3′-amino primer extension; assay type: biochemical; details: 1 mM dCTP, 10 mM CaCl2, varying mole fraction D2O
BF = BF (Geobacillus stearothermophilus, UniProt P52026, F710Y); experiment: Extension of a native DNA 3′-OH primer with nCTP and trivalent cofactors; assay type: biochemical; details: for pre-steady-state rate constant for extension of a native DNA 3′-OH terminus with nCTP: 5 mM metal, stoichiometric citrate, 55° C., mean±s.d.
BF F710Y/D598A [3] = molecular target: T1, BF F710Y/D598A; assay type: biochemical; details: for Effect on NP-DNA polymerization with all four nNTPs on mixed sequence templates: vs. Ca2+
BF F710Y [4] = molecular target: T2, BF F710Y; experiment: Elemental thio effect on pre-steady-state NP synthesis; assay type: biochemical; details: 45° C.

T1 sequence (P52026 other isoform, or with tags, fused parts or gaps with the stated changes): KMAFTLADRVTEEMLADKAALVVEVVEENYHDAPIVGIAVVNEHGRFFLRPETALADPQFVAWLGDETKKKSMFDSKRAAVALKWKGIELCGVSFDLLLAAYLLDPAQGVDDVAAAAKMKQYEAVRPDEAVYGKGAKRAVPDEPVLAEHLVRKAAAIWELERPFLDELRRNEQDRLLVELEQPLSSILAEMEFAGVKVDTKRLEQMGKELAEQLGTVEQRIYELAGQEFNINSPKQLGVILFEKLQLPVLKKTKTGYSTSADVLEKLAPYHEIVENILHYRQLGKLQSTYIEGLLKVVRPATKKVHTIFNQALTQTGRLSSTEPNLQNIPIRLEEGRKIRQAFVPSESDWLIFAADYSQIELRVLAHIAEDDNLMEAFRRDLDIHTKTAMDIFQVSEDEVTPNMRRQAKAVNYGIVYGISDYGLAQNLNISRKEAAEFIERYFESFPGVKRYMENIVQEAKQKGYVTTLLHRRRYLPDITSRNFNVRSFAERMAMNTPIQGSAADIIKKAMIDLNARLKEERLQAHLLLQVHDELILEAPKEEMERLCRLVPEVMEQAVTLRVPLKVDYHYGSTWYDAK
BF, sequence (P52026 other isoform, or with tags, fused parts or gaps with the stated changes): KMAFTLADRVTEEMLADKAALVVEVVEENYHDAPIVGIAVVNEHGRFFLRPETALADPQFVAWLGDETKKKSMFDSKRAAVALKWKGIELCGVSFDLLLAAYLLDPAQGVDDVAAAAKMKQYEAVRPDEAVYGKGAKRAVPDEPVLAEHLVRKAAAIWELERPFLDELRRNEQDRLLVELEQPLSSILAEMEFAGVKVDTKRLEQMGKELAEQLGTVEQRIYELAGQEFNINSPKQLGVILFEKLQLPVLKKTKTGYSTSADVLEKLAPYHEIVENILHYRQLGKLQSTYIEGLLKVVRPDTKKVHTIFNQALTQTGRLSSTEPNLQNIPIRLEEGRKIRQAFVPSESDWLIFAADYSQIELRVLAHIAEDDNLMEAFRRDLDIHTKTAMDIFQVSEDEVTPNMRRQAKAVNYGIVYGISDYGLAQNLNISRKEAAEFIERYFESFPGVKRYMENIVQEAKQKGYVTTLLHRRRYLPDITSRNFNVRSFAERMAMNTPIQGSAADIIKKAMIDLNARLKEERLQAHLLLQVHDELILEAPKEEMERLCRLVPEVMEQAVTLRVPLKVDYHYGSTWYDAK
wild-type BF, sequence (P52026 other isoform, or with tags, fused parts or gaps with the stated changes): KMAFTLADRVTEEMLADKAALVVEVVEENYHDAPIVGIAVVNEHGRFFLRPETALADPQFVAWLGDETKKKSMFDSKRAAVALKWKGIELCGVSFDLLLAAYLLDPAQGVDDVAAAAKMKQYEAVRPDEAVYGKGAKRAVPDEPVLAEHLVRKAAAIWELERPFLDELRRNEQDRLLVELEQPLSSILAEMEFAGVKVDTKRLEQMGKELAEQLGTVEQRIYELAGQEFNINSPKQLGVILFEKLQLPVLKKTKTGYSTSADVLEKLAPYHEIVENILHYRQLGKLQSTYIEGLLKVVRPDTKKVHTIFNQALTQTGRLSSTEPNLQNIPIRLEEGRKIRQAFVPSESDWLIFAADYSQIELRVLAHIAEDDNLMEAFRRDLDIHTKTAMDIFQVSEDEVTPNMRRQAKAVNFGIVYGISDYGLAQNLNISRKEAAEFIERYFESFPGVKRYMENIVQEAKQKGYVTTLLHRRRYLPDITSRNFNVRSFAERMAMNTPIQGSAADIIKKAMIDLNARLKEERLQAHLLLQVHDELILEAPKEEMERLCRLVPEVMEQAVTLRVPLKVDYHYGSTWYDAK

[Ba+2] [Ba^2+]
Kinetics of 3′-amino primer extension vs. absence of added divalent metals (wild-type BF): faster

[Ca+2] [Ca^2+]
Maximum reaction velocity, saturating Ca2+ vs. Mg2+ (wild-type BF; 1 mM dCTP): ~5 fold
kpol of 3′-amino primer extension by wild-type BF (wild-type BF; 1 mM dCTP): 0.075 min⁻¹
Kinetics of 3′-amino primer extension vs. absence of added divalent metals (wild-type BF): faster
Kd (wild-type BF): 2100 µM
Kinetic effect among divalent cofactors (wild-type BF; pH 8.8 and 55° C.): largest kinetic effect
Maximum reaction velocity (wild-type BF; saturating metal ion): ~4.5 nt/hr
pre-steady-state rate constant for nCTP addition (BF F710Y/D598A [1]; 55° C.): 0.069 min⁻¹
SDKIE (BF F710Y [2]): 1.16

[Lu+3] [Lu^3+]
burst activity kpol (BF F710Y/D598A [1]; 55° C., nCTP, mean±s.e.m): 6.9±0.7
Effect on single-nucleotide 3′-amino primer extension (BF F710Y/D598A [1]; vs. Ca2+): significantly improved
pre-steady-state rate constant for extension of a native DNA 3′-OH terminus with nCTP (BF): 8±1×10^−3 min^−1
Multiple turnover activity in long primer extensions relative to Sc3+ (BF F710Y/D598A [3]; 55° C.): far weaker multiple turnover activity
Effect on NP-DNA polymerization with all four nNTPs on mixed sequence templates (BF F710Y/D598A [3]): significantly improved

[Mg+2] [Mg^2+]
kpol of 3′-amino primer extension by wild-type BF (wild-type BF; 1 mM dCTP): 0.015 min⁻¹
Kinetics of 3′-amino primer extension vs. absence of added divalent metals (wild-type BF): faster
Kd (wild-type BF): 1300 µM
Effect of added Mg2+ on NP-DNA synthesis activated by Sc3+ (BF F710Y/D598A [3]; low millimolar range): inhibited

Nc1ccn([C@H]2C[C@H](O)[C@@H](COP(O)(=S)OP(=O)(O)OP(=O)(O)O)O2)c(=O)n1 (stereo partly drawn) [Rp-dCTPαS, 2′-deoxycytidine 5′-O-(1-thiotriphosphate), reference compound]
Additional thio effect for Rp vs. Sp substrate (BF F710Y [4]; Ca2+ activated): 4 fold

[Sc+3] [Sc^3+]
pre-steady-state rate constant for nCTP addition (BF F710Y/D598A [1]; 55° C.): 7.1 ± 0.5 min⁻¹ and 6.8 ± 0.3 min⁻¹
Acceleration of kinetics over Ca2+ (BF F710Y/D598A [1]; 55° C.): ~100 fold
Acceleration of kinetics over Ca2+ (BF F710Y/D598A [1]; 55° C., listed as Scandium(III)): > 100 fold
Effect on single-nucleotide 3′-amino primer extension (BF F710Y/D598A [1]; vs. Ca2+): significantly improved
Stabilization effect (BF F710Y/D598A [1]; vs. Ca2+): ca. −3 kcal/mol
Specificity for the Sp over Rp substrates (BF F710Y [4]; Sc3+ activated): 66 fold
thio effect (BF F710Y [4]; Sc3+ activated, mean±s.d.): 0.58±0.07
pre-steady-state rate constant for extension of a native DNA 3′-OH terminus with nCTP (BF): 5.5±0.6×10^−3 min^−1
3′-OH extension compared with 3′-NH2 extension (BF; nCTP): at least three orders of magnitude slower
Length of NP-DNA strands yielded (BF F710Y/D598A [3]): ≥ 100 nts
Overall NP polymerase reaction time to yield full length products (BF F710Y/D598A [3]; Sc3+ and spermine, 55° C.): 0.9-1.3 min/nt
Effect on NP-DNA polymerization with all four nNTPs on mixed sequence templates (BF F710Y/D598A [3]): significantly improved
Full length products on mixed sequence DNA templates (BF F710Y/D598A [3]; with spermine, 55° C.): up to +71 nt
Time to synthesize full length products (BF F710Y/D598A [3]; with spermine, 55° C., +71 or +100 nt templates): 1 to 2 h
Full length products on mixed sequence DNA templates, with additional enzyme (BF F710Y/D598A [3]; with spermine, additional enzyme, 55° C.): up to +100 nt

Nc1ccn([C@H]2C[C@H](O)[C@@H](COP(O)(=S)OP(=O)(O)OP(=O)(O)O)O2)c(=O)n1 (stereo partly drawn) [Sp-dCTPαS, 2′-deoxycytidine 5′-O-(1-thiotriphosphate), reference compound]
thio effect kO/kS (BF F710Y [4]; Ca2+ activated, dCTP vs. Sp-dCTPαS, mean±s.d.): 10.6±0.5

[Sr+2] [Sr^2+]
Kinetics of 3′-amino primer extension vs. absence of added divalent metals (wild-type BF): faster

[Y+3] [Y^3+]
Effect on single-nucleotide 3′-amino primer extension (BF F710Y/D598A [1]; vs. Ca2+): significantly improved
Effect on NP-DNA polymerization with all four nNTPs on mixed sequence templates (BF F710Y/D598A [3]): significantly improved

NCCCNCCCCNCCCN [spermine]
Activation of long NP-DNA synthesis by polyamine (BF F710Y/D598A [3]): optimal at low micromolar concentrations

Reference: patent US20240309418A1, “ENZYMATIC METHODS AND COMPOSITIONS FOR POLYMERIZATION OF PHOSPHORAMIDATE AND THIOPHOSPHORAMIDATE-LINKED DNA” (The General Hospital Corporation, priority 2023, published 2024)
